Measured values from US20210113563A1, “4-(4-CYANO-2-THIOARYL)DIHYDROPYRIMIDINONES FOR TREATING CHRONIC WOUNDS” (pH Pharma Co., Ltd., priority 2015, published 2021).

Test system: collagen type I and collagen type III in ulcer tissue
Experiment: Collagen type I and III in chronic skin lesions of adriamycin-treated rats, Sirius red staining
Type: in vivo, rat
Settings: for Collagen type I / Collagen type III: adriamycin-treated rats, 10 mg/kg BW o.d.
Source text: On day 2, 4, 7, 9, 11, 14, 16, 18, 21, 23, 25 and 28 • inhalation anesthesia: isoflurane, O2, N2O mixture • size measurement of the depot and photos Day 28 section • inhalation anesthesia: isoflurane, O2, N2O mixture under anesthesia and then dislocation of the cervical spine • size measurement of the depot and the incision wound and photos • Former depots were harvested by punch biopsies • Wound 1/custodian of any animal->in liquid N2 for peroxidase and elastase determination • Wound 2/custodian of any animal->in liquid N2 for Hydroxyproline determination • Wound 3/custodian of any animal->in formalin fixed for histological studies • Samples were stored for further procedures at −80° C.
After sufficient time in formalin (24-72 h), the samples were trimmed to an appropriate size and transferred to histology-cassettes. The histo-cassettes are watered 2 h under running tap water at room temperature. The drainage and waxing was done using a Leica ASP200, the samples were embedded in paraffin, sectioned by microtome and mounted on slides. The paraffin sections were stained depending on the question (Ladewig or Sirius Red)
To assess the content of collagen type I (mature form) and collagen type III (newly formed) in ulcer tissue, Sirius red staining was performed according to standard protocols.

## CC1=C(C#N)[C@@H](c2ccc(C#N)cc2S(C)(=O)=O)N(C)C(=O)N1c1cccc(C(F)(F)F)c1 [Example 5, (4 S)-4-[4-Cyano-2-(methylsulfonyl)phenyl]-3,6-dimethyl-2-oxo-1-[3-(trifluoromethyl)phenyl]-1,2,3,4-tetrahydropyrimidine-5-carbonitrile]
D 14-28, Sirius red
  Collagen type I: 9.7
  Collagen type III: 46.69
D 21-37, Sirius red
  Collagen type I: 8.8
  Collagen type III: 72.23
rats, after two weeks of treatment
  Collagen type III in Adriamycin-induced lesions (in words): strong increase of collagen type III
